The text below walks through data of publication PMC10523529 (Proceedings of the National Academy of Sciences of the …, 2023).

The test has as its target T1, TAK1 (TAK1-TAB1 fusion protein) (Homo sapiens, UniProt O43318).
T1 sequence (O43318 15-303): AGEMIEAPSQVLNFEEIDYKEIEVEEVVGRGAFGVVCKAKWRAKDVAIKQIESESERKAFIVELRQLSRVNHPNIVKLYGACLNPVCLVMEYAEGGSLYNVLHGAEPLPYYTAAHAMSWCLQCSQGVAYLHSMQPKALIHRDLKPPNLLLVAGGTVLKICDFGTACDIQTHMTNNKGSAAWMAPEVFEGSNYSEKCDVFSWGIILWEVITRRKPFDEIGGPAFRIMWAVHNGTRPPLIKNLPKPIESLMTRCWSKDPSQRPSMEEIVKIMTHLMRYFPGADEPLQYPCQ
T1 sequence (Q15750 468-504 partner): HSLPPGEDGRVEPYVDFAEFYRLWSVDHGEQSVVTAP
Nature of the test: SPR. It is filed as binding.

One may read the Kd as the constant that tells how readily two partners part at equilibrium. A lower Kd goes with tighter binding.

In turn, `COc1cc(Nc2ncc(F)c(Nc3ccc4c(n3)N(COP(=O)(O)O)C(=O)C(C)(C)O4)n2)cc(OC)c1OC` [R788] came in with a dissociation constant Kd of 12.1 µM.
